pIC50: −log10 of the molar value.

The source of these data is patent US12016864B2, “LOX enzyme inhibiting methods and compositions” (ANOVIA BIOSCIENCES, INC., priority 2021, dated 2024).

The assay deals with T1, Recombinant human LOXL2 (lysyl oxidase like 2) (Homo sapiens, UniProt Q9Y4K0).
T1 construct: purchased R&D systems
T1 sequence (Q9Y4K0 26-774): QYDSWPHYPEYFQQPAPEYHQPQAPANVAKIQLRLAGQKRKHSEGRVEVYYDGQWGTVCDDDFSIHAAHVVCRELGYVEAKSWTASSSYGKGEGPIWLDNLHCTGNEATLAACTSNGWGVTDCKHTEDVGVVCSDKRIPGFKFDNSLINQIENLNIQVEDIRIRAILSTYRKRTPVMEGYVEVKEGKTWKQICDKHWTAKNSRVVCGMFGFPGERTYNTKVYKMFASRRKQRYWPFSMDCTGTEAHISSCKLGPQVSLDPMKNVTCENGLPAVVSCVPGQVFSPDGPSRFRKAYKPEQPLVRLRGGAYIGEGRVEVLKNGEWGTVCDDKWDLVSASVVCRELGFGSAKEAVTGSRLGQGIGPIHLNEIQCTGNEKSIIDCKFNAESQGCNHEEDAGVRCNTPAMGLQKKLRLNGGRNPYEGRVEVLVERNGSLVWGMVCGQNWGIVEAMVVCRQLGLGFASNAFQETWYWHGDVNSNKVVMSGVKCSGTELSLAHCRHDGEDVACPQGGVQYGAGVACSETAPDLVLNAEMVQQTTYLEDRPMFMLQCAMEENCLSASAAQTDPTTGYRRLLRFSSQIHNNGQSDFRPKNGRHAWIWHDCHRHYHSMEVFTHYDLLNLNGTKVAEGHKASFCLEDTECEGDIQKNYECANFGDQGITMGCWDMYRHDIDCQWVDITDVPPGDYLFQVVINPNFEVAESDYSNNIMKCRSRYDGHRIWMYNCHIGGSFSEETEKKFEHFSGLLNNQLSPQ
In words: LOXL2 inhibition assay, fluorometric (cadaverine / HRP / Amplex Red). It is filed as biochemical. As to conditions: recombinant human LOXL2 130 nM; 30 min preincubation at 37° C.; 2.5 mM cadaverine; read-out: Activity Range LOXL2. The method, then: The ability of compounds to inhibit one or more of the lysyl oxidases LOXL2 and/or LOXL3 was determined using a fluorometric assay. This assay measures the activity of lysyl oxidases by coupling the reaction with horseradish peroxidase-catalyzed […]. The activity assay protocol uses cadaverine as substrate that releases hydrogen peroxide upon transformation by the specific LOX family enzyme present in the sample. Hydrogen peroxide is in turn detected using a red fluorescence substrate for HRP-coupled reactions (Amplex Red Enzyme Assays, Thermo Scientific Fisher). This leads to increase in fluorescence that can be easily detected at Ex/Em=540/590 nm in a fluorescence microplate reader.
Recombinant human LOXL2 (lysyl oxidase like 2) and recombinant human LOXL3 (lysyl oxidase like 3) were purchased from R&D systems and assays were performed in 1.2 M urea, 50 mM sodium borate buffer pH 8.0, and 10 mM CaCl.
5 μl of freshly prepared reaction buffer were delivered to reaction wells. Compounds were resuspended in 100% DMSO at 10 mM and delivered into buffer using acoustic technology (Echo550; nanoliter range). A 3× solution of LOXL2 or LOXL3 in reaction buffer was prepared (“enzyme solution”) and 5 μL of enzyme solution was added into the reaction wells. Buffer only was added to column 1 for no protein control. Reactions were incubated for 30 minutes at 37° C. A 3× mixture of cadaverine, Amplex Red, and HRP (“Substrate/Detection Mix) was prepared and subsequently 5 μL of the mixture added to each reaction well. Progress of reactions was monitored for 60 minutes at 37° C. using Clariostar plate reader (ex 530-12, ems 600-40). For all activity assays, pan-LOX inhibitor CCT365623 (Tang et al, 2017) and LOXL2/LOXL3 inhibitor PAT-1251 (PharmaKea) were included as standards.
For the data analysis, the slope of the linear portion of the progress curve was calculated using Clariostar software. Typical analysis interval was between 8-30 min, but varied between experiments. The background-subtracted signals (No protein wells are considered as background) were converted to % activity relative to DMSO controls. Data was analyzed using GraphPad Prism 4 with “sigmoidal dose-response (variable slope)”; 4 parameters with Hill Slope. Constraints: Bottom=Constant equal to 0. Top=Must be less than 120.
`NCc1ccnc(S(=O)(=O)C[C@@H]2C[C@H](c3ccccc3F)CN2S(=O)(=O)N2CCS(=O)(=O)CC2)c1` (racemic) [Example 205, cis-4-((2-(((4-(Aminomethyl)pyridin-2-yl)sulfonyl)methyl)-4-(2-fluorophenyl)pyrrolidin-1-yl)sulfonyl)thiomorpholine 1,1-dioxide 2,2,2-trifluoroacetate]: the pIC50 was not below 6.30.
For `NCc1ccc(S(=O)(=O)C[C@@H]2C[C@H](c3ccccc3F)CN2S(=O)(=O)N2CCS(=O)(=O)CC2)s1` (racemic) [Example 209, cis-4-((2-(((5-(Aminomethyl)thiophen-2-yl)sulfonyl)methyl)-4-(2-fluorophenyl)pyrrolidin-1-yl)sulfonyl)thiomorpholine 1,1-dioxide 2,2,2-trifluoroacetate], the pIC50 was not below 6.30.
As for `NCc1ccnc(OC[C@@H]2C[C@H](c3ccccc3F)CN2S(=O)(=O)N2CCOCC2)c1` (racemic) [Example 211, cis-(2-((4-(2-Fluorophenyl)-1-(morpholinosulfonyl)pyrrolidin-2-yl)methoxy)pyridin-4-yl)methanamine; trifluoroacetic acid], the figure is not below 6.30; as for `NCc1ccnc(OC[C@@H]2C[C@H](c3ccccc3F)CN2S(=O)(=O)N2CCS(=O)(=O)CC2)c1` (racemic) [Example 213, cis-4-((2-(((4-(Aminomethyl)pyridin-2-yl)oxy)methyl)-4-(2-fluorophenyl)pyrrolidin-1-yl)sulfonyl)thiomorpholine 1,1-dioxide 2,2,2-trifluoroacetate], not below 6.30; as for `NCc1cccc(OC[C@@H]2C[C@H](c3ccccc3F)CN2S(=O)(=O)N2CCOCC2)c1` (racemic) [Example 215, cis-(3-((4-(2-Fluorophenyl)-1-(morpholinosulfonyl)pyrrolidin-2-yl)methoxy)phenyl)methanamine], 6.00 to 6.30.
`NCc1cccc(OC[C@@H]2C[C@H](c3ccccc3F)CN2S(=O)(=O)N2CCS(=O)(=O)CC2)c1` (racemic) [Example 217, cis-4-((2-((3-(Aminomethyl)phenoxy)methyl)-4-(2-fluorophenyl)pyrrolidin-1-yl)sulfonyl)thiomorpholine 1,1-dioxide 2,2,2-trifluoroacetate]: the pIC50 is 6.00 to 6.30.
On to `NCc1ccnc(S(=O)(=O)C[C@@H]2C[C@H](c3ccccc3)CN(S(=O)(=O)N3CCOCC3)C2)c1` (racemic) [Example 219, cis-(2-(((1-(Morpholinosulfonyl)-5-phenylpiperidin-3-yl)methyl)sulfonyl)pyridin-4-yl)methanamine 2,2,2-trifluoroacetate], for which the pIC50 is not below 6.30.
As for `NCc1ccnc(S(=O)(=O)C[C@H]2C[C@H](c3ccccc3)CN(S(=O)(=O)N3CCOCC3)C2)c1` (racemic) [Example 219T, trans-(2-(((1-(Morpholinosulfonyl)-5-phenylpiperidin-3-yl)methyl)sulfonyl)pyridin-4-yl)methanamine 2,2,2-trifluoroacetate], the figure is not below 6.30; as for `NCc1ccnc(OC[C@@H]2C[C@H](c3ccccc3)CN(S(=O)(=O)N3CCOCC3)C2)c1` (racemic) [Example 220, cis-(2-((1-(Morpholinosulfonyl)-5-phenylpiperidin-3-yl)methoxy)pyridin-4-yl)methanamine 2,2,2-trifluoroacetate], not below 6.30; as for `NCc1cccc(OC[C@@H]2C[C@H](c3ccccc3)CN(S(=O)(=O)N3CCOCC3)C2)c1` (racemic) [Example 221, cis-(3-((1-(Morpholinosulfonyl)-5-phenylpiperidin-3-yl)methoxy)phenyl)methanamine 2,2,2-trifluoroacetate], not below 6.30.
Regarding `NCc1ccc(S(=O)(=O)C[C@@H]2C[C@H](c3ccccc3)CN(S(=O)(=O)N3CCOCC3)C2)s1` (racemic) [Example 222, cis-(5-(((1-(Morpholinosulfonyl)-5-phenylpiperidin-3-yl)methyl)sulfonyl)thiophen-2-yl)methanamine 2,2,2-trifluoroacetate], the pIC50 is not below 6.30.
Take `CS(=O)(=O)N1C[C@@H](c2ccccc2)C[C@H]1CS(=O)(=O)c1ccc(CN)s1` (racemic) [Example 223, cis-(5-(((1-(Methylsulfonyl)-4-phenylpyrrolidin-2-yl)methyl)sulfonyl)thiophen-2-yl)methanamine 2,2,2-trifluoroacetate]: the pIC50 is not below 6.30.
Under `CS(=O)(=O)N1C[C@@H](c2ccccc2)C[C@@H]1CS(=O)(=O)c1ccc(CN)s1` (racemic) [Example 223T, trans-(5-(((1-(Methylsulfonyl)-4-phenylpyrrolidin-2-yl)methyl)sulfonyl)thiophen-2-yl)methanamine 2,2,2-trifluoroacetate] stands not below 6.30; under `NCc1ccnc(OC[C@H]2C[C@H](C3CCCCC3)CN(S(=O)(=O)N3CCS(=O)(=O)CC3)C2)c1` (racemic) [Example 235T, trans-4-((3-(((4-(Aminomethyl)pyridin-2-yl)oxy)methyl)-5-cyclohexylpiperidin-1-yl)sulfonyl)thiomorpholine 1,1-dioxide 2,2,2-trifluoroacetate], not below 6.30.
Take `NCc1ccnc(OC[C@@H]2CC(C3CCCCC3)CN2S(=O)(=O)N2CCOCC2)c1` (mixture of isomers) [Example 239RAC, (2-(((2S)-4-Cyclohexyl-1-(morpholinosulfonyl)pyrrolidin-2-yl)methoxy)pyridin-4-yl)methanamine 2,2,2-trifluoroacetate]: the pIC50 is not below 6.30.
For the compound `NCc1ccnc(OC[C@H]2C[C@H](c3ccccc3)CN(S(=O)(=O)N3CCOCC3)C2)c1` (relative stereo) [Example 220T, trans-(2-((1-(Morpholinosulfonyl)-5-phenylpiperidin-3-yl)methoxy)pyridin-4-yl)methanamine 2,2,2-trifluoroacetate], the pIC50 was 6.00 to 6.30.
Turning to `NCc1cccc(OC[C@H]2C[C@H](c3ccccc3)CN(S(=O)(=O)N3CCOCC3)C2)c1` (relative stereo) [Example 221T, trans-(3-((1-(Morpholinosulfonyl)-5-phenylpiperidin-3-yl)methoxy)phenyl)methanamine 2,2,2-trifluoroacetate], the pIC50 is not below 6.30.
As for `NCc1ccc(S(=O)(=O)C[C@H]2C[C@H](c3ccccc3)CN(S(=O)(=O)N3CCOCC3)C2)s1` (relative stereo) [Example 222T, trans-(5-(((1-(Morpholinosulfonyl)-5-phenylpiperidin-3-yl)methyl)sulfonyl)thiophen-2-yl)methanamine 2,2,2-trifluoroacetate], the pIC50 was not below 6.30.
Under `NCc1ccnc(S(=O)(=O)C[C@@H]2C[C@H](C3CCCCC3)CN(S(=O)(=O)N3CCOCC3)C2)c1` (relative stereo) [Example 230, cis-(2-(((5-Cyclohexyl-1-(morpholinosulfony1)piperidin-3-yl)methyl)sulfonyl)pyridin-4-yl)methanamine 2,2,2-trifluoroacetate] stands not below 6.30; under `NCc1ccnc(S(=O)(=O)C[C@H]2C[C@H](C3CCCCC3)CN(S(=O)(=O)N3CCOCC3)C2)c1` (relative stereo) [Example 230T, trans-(2-(((5-Cyclohexyl-1-(morpholinosulfonyl)piperidin-3-yl)methyl)sulfonyl)pyridin-4-yl)methanamine 2,2,2-trifluoroacetate], not below 6.30.
